Data taken from ChEMBL document CHEMBL2046426, “Neo-clerodane diterpenes from Salvia herbacea” (J Nat Prod, 2012).
Activity calls are given as the source filed them. The calls are words filed in the database; no cut-off is given here.

Assays:
Mus musculus [1] = test: Antiinflammatory activity in CD-1 mouse assessed as inhibition of TPA-induced ear edema at 0.1 to 1.0 uM applied topically 10 mins before compound challenge measured after 4 hrs; format: functional, organism-based
Mus musculus [2] = test: Antiinflammatory activity in CD-1 mouse assessed as inhibition of TPA-induced ear edema applied topically 10 mins before compound challenge measured after 4 hrs; format: functional, organism-based; settings: CD-1, Ear
SK-LU-1 = test: Cytotoxicity against human SKLU1 cells after 48 hrs by SRB assay; format: functional, cell-based; settings: SK-LU-1, 48 h
U-251 = test: Cytotoxicity against human U251 cells after 48 hrs by SRB assay; format: functional, cell-based; settings: U-251, 48 h

## COc1ccc2c(c1)c(CC(=O)O)c(C)n2C(=O)c1ccc(Cl)cc1
Mus musculus [1]
  inhibition: Active

## C[C@]12C[C@H](c3ccoc3)OC(=O)[C@@]1(O)CC[C@@]13COC(=O)C1=CC[C@H]1O[C@]132 [TEHUANINE G]
Mus musculus [2]
  IC50: 0.24 µmol/ear

## C[C@]12C[C@H](c3ccoc3)OC(=O)[C@@H]1[C@H](O)C[C@@]13COC(=O)C1=CC[C@H]1O[C@]132 [TEHUANINE F]
SK-LU-1
  IC50: 38.9 µM
U-251
  IC50: 41.9 µM
